Test results as given in PubChem BioAssay (NCI).
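In this assay, cells in 96-well plates receive the compound at five concentrations for 48 hours. Endpoints are linearly interpolated between the surrounding concentrations. The concentration for full growth arrest is given as TGI.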

Legend:
Test in all cases: inhibition of tumour cell growth, NCI panel, 48 h
[1] = tested on: CAKI-1 renal
[2] = tested on: HOP-62 NSCLC
[3] = tested on: HOP-92 NSCLC
[4] = tested on: HT29 colon
[5] = tested on: MOLT-4 leukemia
[6] = tested on: NCI-H23 lung
[7] = tested on: OVCAR-3 ovarian
[8] = tested on: RPMI-8226 leukemia
[9] = tested on: SF-539 CNS
[10] = tested on: SK-MEL-2 melanoma
[11] = tested on: SNB-75 CNS
[12] = tested on: UACC-257 melanoma
[13] = tested on: ACHN renal
[14] = tested on: MDA-MB-231 breast
[15] = tested on: MDA-N
[16] = tested on: OVCAR-5 ovarian
[17] = tested on: PC-3 prostate
[18] = tested on: U251 CNS
[19] = tested on: BT-549 breast
[20] = tested on: HS 578T breast

Compound | TGI [1] [µM] | TGI [2] [µM] | TGI [3] [µM] | TGI [4] [µM] | TGI [5] [µM] | TGI [6] [µM] | TGI [7] [µM] | TGI [8] [µM] | TGI [9] [µM] | TGI [10] [µM] | TGI [11] [µM] | TGI [12] [µM] | TGI [13] [µM] | TGI [14] [µM] | TGI [15] [µM] | TGI [16] [µM] | TGI [17] [µM] | TGI [18] [µM] | TGI [19] [µM] | TGI [20] [µM]
O=S1(=O)OCCOS(=O)(=O)C1I | > 100 | > 100 | > 100 | > 100 | > 100 | > 100 | > 100 | > 100 | > 100 | > 100 | > 100 | > 100 | – | – | – | – | – | – | – | –
CC(=O)OC1CCN(C(=O)c2ccccc2)CC1CC1(c2cc3ccccc3[nH]2)OCCO1 (stereo not drawn) | > 100 | > 100 | > 100 | > 100 | 75 | > 100 | > 100 | 70.4 | – | > 100 | > 100 | > 100 | > 100 | > 100 | > 100 | > 100 | > 100 | > 100 | – | –
CC1=NN(c2nc(N)nc(CCl)n2)CC1 | 21.4 | 29.4 | 38.7 | > 100 | 68.9 | 41.2 | 35.3 | > 100 | 57.9 | > 100 | 74.1 | > 100 | 38.5 | > 100 | – | 57.4 | > 100 | > 100 | > 100 | > 100
O=C1/C(=C/C=C/c2ccccc2)N=C(c2ccccc2)N1C1Nc2cc3c(cc2S1)NC(N1C(=O)/C(=C/C=C/c2ccccc2)N=C1c1ccccc1)S3 (stereo not drawn) | > 100 | > 100 | 85.2 | > 100 | 0.302 | > 100 | > 100 | 57 | > 100 | > 100 | – | > 100 | > 100 | > 100 | – | > 100 | > 100 | > 100 | – | > 100
CC1=NN(c2ccccc2)C(=O)C1=C1SCCS1 | > 100 | > 100 | > 85.8 | > 100 | > 100 | > 100 | > 100 | > 49.5 | > 100 | > 100 | > 100 | > 100 | > 100 | – | – | > 100 | – | > 90.3 | – | –
COc1ccc(N2C(=O)C3c4[nH]c5ccccc5c4C4CCCCCCCCCCC4C3C2=O)cc1 (stereo not drawn) | > 100 | > 55 | 45.2 | 18.9 | 37.4 | > 33.1 | 26.4 | 43.2 | > 33.2 | > 100 | 55 | > 100 | > 60.3 | – | – | > 64.6 | – | 22.4 | – | –
CSC1=C(C(=O)Nc2ccc(Cl)cc2)C(N)=NC1=O | > 100 | – | – | > 100 | > 100 | > 100 | > 100 | > 100 | > 100 | > 100 | > 100 | > 100 | – | > 100 | – | > 100 | > 100 | > 100 | > 100 | > 100
CCOC(=O)/C(=C\c1ccc(O)c(OC)c1)C(=O)c1ccccc1 | > 58.7 | – | 70.7 | > 66.8 | > 52.2 | 23.7 | 54.3 | 42.1 | 28 | 34.8 | 89.5 | > 49.7 | 36 | – | – | > 59.3 | – | 36.2 | – | –
N#Cc1c2ccc([N+](=O)[O-])cc2c(=O)n2c1sc1ccc(C(F)(F)F)cc12 | > 100 | > 100 | > 100 | > 100 | > 100 | > 100 | > 100 | > 100 | > 100 | – | > 100 | > 100 | > 100 | > 100 | – | > 100 | – | > 100 | > 100 | –
C/C(=N\NS(=O)(=O)c1ccc(C)cc1)C(CN1CCOCC1)C(c1ccccc1)c1c(O)c2ccccc2oc1=O (stereo not drawn) | > 100 | > 100 | > 100 | > 100 | – | > 100 | > 100 | > 100 | > 100 | > 100 | > 100 | > 100 | > 100 | – | – | > 100 | – | > 100 | – | –
CCCN(CCCCC(NC(C)=O)C(=O)NCc1ccccc1)C(=O)N(C)N=O (stereo not drawn) | > 100 | > 100 | > 100 | > 100 | > 100 | > 100 | > 100 | > 100 | > 100 | > 100 | > 100 | > 100 | > 100 | – | – | > 100 | – | > 100 | – | –
CC(C)CNC(=O)CCc1cccc2c1oc1c(CCN)cccc12 | 31.5 | 33.7 | 22.7 | 22.6 | 30.7 | 26.7 | 17.2 | – | 30.3 | 36.7 | 20.1 | 24.8 | 25.8 | 31.6 | 40.5 | 28.7 | 34.3 | 18.9 | – | –
Cc1nc2c(n1CCO)C(=O)c1ccccc1C2=O | – | 74.4 | – | > 100 | > 100 | 30.8 | 76.2 | – | 88.9 | 53 | > 100 | 34 | > 100 | – | – | – | – | 91.8 | – | –
C=CCCC(OCOCCOC)c1cc(C)c(O[Si](C)(C)C(C)(C)C)c(C)c1 (stereo not drawn) | – | 35.2 | – | – | 19.4 | 31.5 | 27.7 | 23.4 | 38.6 | 30.8 | 35.6 | 26.6 | 26.7 | – | – | 32.4 | – | 27.3 | – | –
CCCCCCCC1(N=[N+]=[N-])C(=O)c2ccccc2N(C)C1=O (stereo not drawn) | > 100 | > 100 | 89.6 | > 100 | > 100 | > 100 | > 100 | > 100 | > 100 | – | > 100 | > 100 | > 100 | > 100 | – | > 100 | > 100 | > 100 | > 100 | > 100
C/C(CC(=O)Nc1ccc(Cl)c(Cl)c1)=N/NC(=O)C[n+]1ccccc1 | > 100 | > 100 | > 100 | > 100 | > 100 | > 100 | > 100 | > 100 | > 100 | > 100 | – | > 100 | > 100 | – | – | > 100 | – | > 100 | – | –
COc1cccc2c1CCc1ccccc1CC2=O | > 100 | – | > 100 | > 100 | > 100 | > 100 | > 100 | > 100 | > 100 | > 100 | > 100 | > 100 | > 100 | – | – | > 100 | – | > 100 | – | –
COc1c(Cl)c2c(c(OC)c1OC)-c1ccc(OC)c(=O)c(Cl)c1C(NC(C)=O)CC2 (stereo not drawn) | > 100 | > 27.2 | 13.8 | – | > 100 | – | 0.378 | 10.3 | 0.444 | 7.87 | 1.1 | > 100 | > 100 | – | – | > 100 | – | 1.15 | – | –
COc1ccc(N2C(=O)C3c4[nH]c5ccc(OC)cc5c4C4CCC(C(C)(C)C)CC4C3C2=O)cc1 (stereo not drawn) | > 100 | 52.5 | 36.4 | > 100 | > 100 | 80.8 | > 100 | > 100 | 55.1 | 70.4 | 35.6 | > 100 | > 100 | – | – | > 100 | – | 44.8 | – | –
COC(=O)CCCN(C)c1n[nH]c(N)n1 | – | > 100 | – | > 100 | > 100 | > 100 | > 100 | > 100 | > 100 | – | > 100 | > 100 | > 100 | – | – | > 100 | – | > 100 | – | –
Cc1ccc(S(=O)(=O)N2CCN(S(=O)(=O)c3ccc(C)cc3)Cc3ccccc3C2)cc1 | > 100 | 51.5 | – | > 100 | > 100 | > 100 | > 100 | > 100 | > 100 | > 100 | – | > 100 | > 100 | > 100 | – | – | – | – | > 100 | 96.5
COc1ccc(C[C@@H]2Cc3cc(OC)c(OC)cc3CN2C)cc1 | > 100 | > 100 | – | > 100 | > 100 | > 100 | > 100 | > 100 | – | > 100 | > 100 | > 100 | > 100 | – | – | > 100 | – | > 100 | – | –
CC(=O)c1cccc(NC(=O)/C(=N\NC(C)(C)C)c2c(O)c3ccccc3oc2=O)c1 | > 100 | > 100 | > 100 | > 100 | > 100 | > 100 | > 100 | – | > 100 | > 100 | > 100 | > 100 | > 100 | – | – | – | – | – | – | –
CC(=O)O[C@H]1C(=O)[C@@]2(C)[C@H]([C@H](OC(=O)c3ccccc3)[C@]3(O)C[C@H](OC(=O)[C@H](OC(=O)OCCC(O)CO)[C@@H](NC(=O)c4ccccc4)c4ccccc4)C(C)=C1C3(C)C)[C@]1(OC(C)=O)CO[C@@H]1C[C@@H]2O (stereo partly drawn) | 62.9 | 19.9 | 61.6 | > 100 | 24.9 | > 37 | 14.5 | – | < 0.01 | > 100 | 1.28 | 23.3 | > 62.2 | 21.6 | – | 43.5 | > 100 | 19.2 | 19.1 | –
COc1cc(OC)cc(Oc2nc3ccccc3nc2C(=O)O)c1 | > 100 | > 100 | > 100 | > 100 | > 100 | > 100 | > 100 | > 100 | – | > 100 | > 100 | > 100 | > 100 | > 100 | – | > 100 | > 100 | > 100 | – | > 100
COc1ccc2c(c1)c(=O)c1ccccc1n2/C=C/C(=O)O | > 100 | > 100 | > 100 | > 100 | > 100 | > 100 | > 100 | > 100 | > 100 | > 100 | > 100 | > 100 | > 100 | – | – | > 100 | – | > 100 | – | –
COC(=O)c1ccc(OCc2ccc3nc(OC)c(OC)nc3c2)cc1 | > 100 | > 100 | – | > 100 | – | > 100 | > 100 | > 100 | > 100 | > 100 | > 100 | > 100 | > 100 | – | – | > 100 | – | > 100 | – | –
CN(C)c1ccc(-c2cc(=O)c3cc4c(cc3[nH]2)OCO4)cc1 | – | > 100 | – | > 100 | > 100 | > 100 | > 100 | > 100 | > 100 | > 100 | > 100 | > 100 | > 100 | – | – | – | – | > 100 | – | –
OC12c3ccccc3C1(N1CCOCC1)CCCCC21OCCCO1 (stereo not drawn) | > 100 | > 100 | – | > 100 | > 100 | > 100 | > 100 | > 100 | > 100 | > 100 | > 100 | > 100 | > 100 | – | – | > 100 | – | > 100 | – | –
